Laboratory results taken from patent publication US20230203044A1, “PYRAZOLO[1,5-D][1,2,4]TRIAZINE-5(4H)-ACETAMIDES AS INHIBITORS OF THE NLRP3 INFLAMMASOME” (JANSSEN PHARMACEUTICA NV, priority 2020, published 2023).
pEC50, pIC50: −log10 of the molar value.

Experiments:
TNF = experiment: PBMC assay: TNF cytokine levels in LPS-stimulated human PBMCs (MSD); type: cell-based; conditions: 100 ng/ml LPS for 6 hrs, TNF in supernatant via MSD
Protocol: (§1) Peripheral venous blood was collected from healthy individuals and human peripheral blood mononuclear cells (PBMCs) were isolated from blood by Ficoll-Histopaque (Sigma-Aldrich, A0561) density gradient centrifugation. After isolation, PBMCs were stored in liquid nitrogen for later use. Upon thawing, PBMC cell viability was determined in growth medium (RPMI media supplemented with 10% fetal bovine serum, 1% Pen-Strep and 1% L-glutamine). Compounds were spotted in a 1:3 serial dilution in DMSO and diluted to the final concentration in 30 μl medium in 96 well plates (Falcon, 353072). PBMCs were added at a density of 7.5×10^4 cells per well and incubated for 30 min in a 5% CO2 incubator at 37° C. LPS stimulation was performed by addition of 100 ng/ml LPS (final concentration, Invivogen, tlrl-smlps) for 6 hrs followed by collection of cellular supernatant and the analysis of IL-1β (μM) and TNF cytokines levels (μM) via MSD technology according to manufacturers' guidelines (MSD, K151A0H).
The IC50 values (for IL-1β) and EC50 values (TNF) were obtained on compounds of the invention/examples, and are depicted in the following table: […]

NLRP3 inflammasome = experiment: PBMC assay: IL-1β in LPS-stimulated human PBMCs (MSD); type: cell-based; conditions: human PBMCs, 100 ng/ml LPS for 6 hrs, IL-1β in supernatant via MSD, read-out: IL1β IC50
Protocol: The activity of a compound according to the present invention can be assessed by in vitro methods.
as §1, with “Compounds were spotted in a 1:3 serial dilution in DMSO and diluted to the final concentration in 30 μl medium in 96 well plates (Falcon, 353072).” left out

pEC50 (TNF)	pIC50 (NLRP3 inflammasome)	SMILES
< 5.00	5.59	CC(C)c1nn(CC(=O)Nc2ccc3cnnn3c2)c(=O)c2cc(C3CC3)nn12 [Final Cpd 128]
< 5.00	6.17	COc1cc(NC(=O)Cn2nc(C(C)C)n3nc(C4CC4)cc3c2=O)ccn1 [Final Cpd 129]
< 5.00	6.28	CC(C)c1nn(CC(=O)Nc2ccnc(C(F)F)c2)c(=O)c2cc(C3CC3)nn12 [Final Cpd 130]
< 5.00	5.45	Cc1ncc(NC(=O)Cn2nc(C(C)C)n3nc(C4CC4)cc3c2=O)cn1 [Final Cpd 131]
< 5.00	6.14	COc1nccc(NC(=O)Cn2nc(C(C)C)n3nc(C4CC4)cc3c2=O)n1 [Final Cpd 132]
≤ 5.00	6.36	CC(C)c1nn(CC(=O)Nc2ccncc2Cl)c(=O)c2cc(C3CC3)nn12 [Final Cpd 133]
< 5.00	6.64	Cc1cnccc1NC(=O)Cn1nc(C(C)C)n2nc(C3CC3)cc2c1=O [Final Cpd 134]
< 5.00	5.16	CC(C)c1nn(CC(=O)Nc2cnccc2Cl)c(=O)c2cc(C3CC3)nn12 [Final Cpd 135]
< 5.00	5.85	CC(C)c1nn(CC(=O)Nc2ccn3c(F)cnc3c2)c(=O)c2cc(C3CC3)nn12 [Final Cpd 136]
< 5.00	5.91	Cc1cc(NC(=O)Cn2nc(C(C)C)n3nc(C4CC4)cc3c2=O)nc(C)n1 [Final Cpd 137]
< 5.00	< 5.00	Cc1ccncc1NC(=O)Cn1nc(C(C)C)n2nc(C3CC3)cc2c1=O [Final Cpd 138]
< 5.00	5.18	COc1nn(CC(=O)N[C@H]2C[C@@](C)(O)C2)c(=O)c2cc(C3CC3)nn12 [Final Cpd 139]
< 5.00	6.68	CCc1cc2c(=O)n(CC(=O)N[C@H]3C[C@@](C)(O)C3)nc(C(C)C)n2n1 [Final Cpd 140]
< 5.00	6.38	CCc1cc2c(=O)n(CC(=O)Nc3ccnnc3)nc(C(C)C)n2n1 [Final Cpd 141]
< 5.00	6.85	CC(C)c1cc2c(=O)n(CC(=O)N[C@H]3C[C@@](C)(O)C3)nc(C(C)C)n2n1 [Final Cpd 142]
< 5.00	7.00	CC(C)c1cc2c(=O)n(CC(=O)Nc3ccc4nncn4c3)nc(C(C)C)n2n1 [Final Cpd 143]
< 5.00	6.49	CC(C)c1cc2c(=O)n(CC(=O)Nc3ccnnc3)nc(C(C)C)n2n1 [Final Cpd 144]
< 5.00	6.29	CCCc1cc2c(=O)n(CC(=O)Nc3ccnnc3)nc(C(C)C)n2n1 [Final Cpd 145]
< 5.00	6.68	CCc1cc2c(=O)n(CC(=O)Nc3ccc4nncn4c3)nc(C(C)C)n2n1 [Final Cpd 146]
< 5.00	6.40	CC(C)c1cc2c(=O)n(CC(=O)Nc3ccncn3)nc(N(C)C)n2n1 [Final Cpd 147]
< 5.00	6.49	CC(C)c1cc2c(=O)n(CC(=O)Nc3ccc4nncn4c3)nc(N(C)C)n2n1 [Final Cpd 148]
< 5.00	6.11	CC(C)c1cc2c(=O)n(CC(=O)Nc3ccnnc3)nc(N(C)C)n2n1 [Final Cpd 149]
< 5.00	6.44	CC(C)c1cc2c(=O)n(CC(=O)N[C@H]3C[C@@](C)(O)C3)nc(N(C)C)n2n1 [Final Cpd 150]
< 5.00	< 5.00	CC(C)c1nn2c(N(C)C)nn(CC(=O)Nc3ccncn3)c(=O)c2c1Br [Final Cpd 151]
< 5.00	6.07	CCc1cc2c(=O)n(CC(=O)Nc3ccnnc3)nc(N(C)C)n2n1 [Final Cpd 152]

Continued, molecule first:

SMILES	pEC50 (TNF)	pIC50 (NLRP3 inflammasome)
Cc1nnc2cc(NC(=O)Cn3nc(C(C)C)n4nc(C5CC5)cc4c3=O)ccn12 [Final Cpd 94]	< 5.00	5.63
CC(C)c1nn(CC(=O)Nc2cc(Br)c3nncn3c2)c(=O)c2cc(C3CC3)nn12 [Final Cpd 95]	< 5.00	6.43
CC(C)c1nn(CC(=O)Nc2ccncc2F)c(=O)c2cc(C3CC3)nn12 [Final Cpd 96]	< 5.00	6.62
Cc1nccc(NC(=O)Cn2nc(C(C)C)n3nc(C4CC4)cc3c2=O)c1F [Final Cpd 97]	< 5.00	6.70
CC(C)c1nn(CC(=O)Nc2nccc(C(F)(F)F)n2)c(=O)c2cc(C3CC3)nn12 [Final Cpd 98]	< 5.00	< 5.00
CC(C)c1nn(CC(=O)Nc2ccc3nc(C#N)cn3c2)c(=O)c2cc(C3CC3)nn12 [Final Cpd 99]	< 5.00	6.31
CC(C)c1nn(CC(=O)Nc2ccc3ncoc3c2)c(=O)c2cc(C3CC3)nn12 [Final Cpd 100]	< 5.00	6.51
CC(C)c1nn(CC(=O)Nc2cnc3ccnn3c2)c(=O)c2cc(C3CC3)nn12 [Final Cpd 101]	< 5.00	5.11
COc1c(NC(=O)Cn2nc(C(C)C)n3nc(C4CC4)cc3c2=O)ccnc1C [Final Cpd 102]	< 5.00	6.28
CC(C)c1nn(CC(=O)Nc2ccn3ncnc3c2)c(=O)c2cc(C3CC3)nn12 [Final Cpd 103]	< 5.00	6.25
Cc1cc(NC(=O)Cn2nc(C(C)C)n3nc(C4CC4)cc3c2=O)c(C)cn1 [Final Cpd 104]	< 5.00	5.79
CC(C)c1nn(CC(=O)Nc2ccc3nc(C(F)F)cn3c2)c(=O)c2cc(C3CC3)nn12 [Final Cpd 105]	< 5.00	6.74
COc1ncccc1NC(=O)Cn1nc(C(C)C)n2nc(C3CC3)cc2c1=O [Final Cpd 106]	< 5.00	6.15
COc1ncc(NC(=O)Cn2nc(C(C)C)n3nc(C4CC4)cc3c2=O)cn1 [Final Cpd 107]	< 5.00	5.37
CC(C)c1nn(CC(=O)Nc2ccc3c(C#N)ncn3c2)c(=O)c2cc(C3CC3)nn12 [Final Cpd 108]	< 5.00	6.27
CC(C)c1nn(CC(=O)Nc2cccnc2Cl)c(=O)c2cc(C3CC3)nn12 [Final Cpd 109]	< 5.00	5.97
CC(C)c1nn(CC(=O)Nc2ccc(Cl)nc2)c(=O)c2cc(C3CC3)nn12 [Final Cpd 110]	< 5.00	6.23

SMILES	pEC50 (TNF)	pIC50 (NLRP3 inflammasome)
COc1ccc(NC(=O)Cn2nc(C(C)C)n3nc(C4CC4)cc3c2=O)cn1 [Final Cpd 111]	< 5.00	6.08
CC(C)c1nn(CC(=O)Nc2cncc(F)c2)c(=O)c2cc(C3CC3)nn12 [Final Cpd 112]	< 5.00	6.06
Cc1ncccc1NC(=O)Cn1nc(C(C)C)n2nc(C3CC3)cc2c1=O [Final Cpd 113]	< 5.00	6.07
Cc1cn2nc(NC(=O)Cn3nc(C(C)C)n4nc(C5CC5)cc4c3=O)ccc2n1 [Final Cpd 114]	< 5.00	6.46
CC(C)c1nn(CC(=O)Nc2cncnc2)c(=O)c2cc(C3CC3)nn12 [Final Cpd 115]	< 5.00	5.76
CC(C)c1nn(CC(=O)Nc2ccc(C(F)F)nc2)c(=O)c2cc(C3CC3)nn12 [Final Cpd 116]	< 5.00	5.91
CC(C)c1nn(CC(=O)Nc2cncc(Cl)c2)c(=O)c2cc(C3CC3)nn12 [Final Cpd 117]	< 5.00	5.85
CC(C)c1nn(CC(=O)Nc2ccncc2)c(=O)c2cc(C3CC3)nn12 [Final Cpd 118]	< 5.00	6.96
CC(C)c1nn(CC(=O)Nc2cccnc2)c(=O)c2cc(C3CC3)nn12 [Final Cpd 119]	< 5.00	6.28
Cc1nccc(NC(=O)Cn2nc(C(C)C)n3nc(C4CC4)cc3c2=O)c1Cl [Final Cpd 120]	< 5.00	6.26
COc1cncc(NC(=O)Cn2nc(C(C)C)n3nc(C4CC4)cc3c2=O)c1 [Final Cpd 121]	< 5.00	5.51
Cc1ccc(NC(=O)Cn2nc(C(C)C)n3nc(C4CC4)cc3c2=O)cn1 [Final Cpd 122]	< 5.00	6.09
CC(C)c1nn(CC(=O)Nc2ccnc(N(C)C)c2)c(=O)c2cc(C3CC3)nn12 [Final Cpd 123]	< 5.00	5.98
Cc1c(NC(=O)Cn2nc(C(C)C)n3nc(C4CC4)cc3c2=O)ccnc1Cl [Final Cpd 124]	< 5.00	6.21
COc1ccncc1NC(=O)Cn1nc(C(C)C)n2nc(C3CC3)cc2c1=O [Final Cpd 125]	< 5.00	5.03
CC(C)c1nn(CC(=O)Nc2ccc3cn[nH]c3c2)c(=O)c2cc(C3CC3)nn12 [Final Cpd 126]	< 5.00	7.15
Cc1cc(NC(=O)Cn2nc(C(C)C)n3nc(C4CC4)cc3c2=O)ccn1 [Final Cpd 127]	< 5.00	6.74
